pKi: −log10 of the molar value.
Legend:
[1] = molecular target: human recombinant GABA A receptor containing the alpha2, beta2, and gamma2 subunits (Homo sapiens (Human), UniProt P18507+P47869); assay: Radioligand competition binding assay with [3H]Ro-15-1788 (Flumazenil); conditions: [3H]flumazenil competition, HEK cell membranes, geometric mean of at least two replicates; read-out: GABA-α2 Ki
Procedure: The affinity of the test compounds was determined by radioligand competition binding assay, using the known compound [3H]Ro-15-1788 (Flumazenil) (Perkin Elmer, 85.4 Ci/mmol) and the human recombinant GABA A receptor containing the alpha2, beta2, and gamma2 subunits.
Membranes were prepared from HEK cells expressing hGABA A alpha2beta2-gamma2 receptor, and validated to ascertain protein concentration, receptor expression and to determine the Kd of the flumazenil as well as the Ki of a standard set of compounds before being used to test new compounds.
The assay was carried out in 96 well plates; testing compounds using a 10 point semi-log dilution range from 19 uM top concentration. 100 ul of radioligand and 100 ul of membrane in 50 mM Tris-HCl and 0.05% F127 with 1 ul of test compound was incubated for 2 hours to allow the reaction to achieve equilibrium, and then harvested onto filter plates, dried and counted on a TopCount NXT. The data was analysed, and the Ki values were presented as the geometric mean of at least two replicates.

[2] = molecular target: GABRA2-GABRB2-GABRG2 chloride currents in HEK cells (Homo sapiens (Human), UniProt P18507+P47869); assay: QPatch electrophysiological recording, % enhancement of GABA current (α2 PAM); type: cell-based; conditions: % enhancement of GABA current at approximately EC10 GABA, −60 mV, whole-cell patch clamp
Procedure: Human Embryonic Kidney (HEK) cells were transfected with a GABRA2-GABRB2-GABRG2 construct using standard techniques. Cells stably expressing the GABRA2-GABRB2-GABRG2 constructs were identified by their resistance to Geneticin G-418 (320 μg/ml), Hygromycin (160 μg/ml) and Zeocin (40 μg/ml). Clones were screened for expression using the BD Pathway 855 imaging system (BD Biosciences, Rockville, Md., USA) and QPatch automated electrophysiology platform (Sophion, Copenhagen, Denmark). […]
GABRA2-GABRB2-GABRG2 chloride currents in HEK cells were measured using the whole-cell configuration of the patch-clamp technique (Hamill et al., 1981). […]
All compounds were dissolved in dimethyl sulfoxide to make 30 mM or 10 mM stock solutions, which were then diluted to 1000 times the desired final concentration in dimethyl sulfoxide. […] Currents were recorded at −60 mV, using an approximately EC10 concentration of gamma-aminobutyric acid (GABA). […]
Compound effect (% enhancement of gamma-aminobutyric acid current) was calculated using the following formula: [((peak modulator current amplitude-leak)−(GABA current amplitude-leak))/(GABA current amplitude-leak)]*100, […]

[3] = molecular target: GABRA1-GABRB3-GABRG2 construct in HEK cells (Homo sapiens (Human), UniProt P14867+P18507); assay: QPatch electrophysiological recording, % enhancement of GABA current (α1 PAM); type: cell-based; conditions: % enhancement of GABA current at approximately EC10 GABA, −60 mV, whole-cell patch clamp

pKi [1]	α2 PAM [2] [%]	α1 PAM [3] [%]	Compound
> 9.22	109	18	CCn1ncc2c(-c3ccc(F)c(-c4ccc(S(=O)(=O)CC)cc4OC)c3)cnnc21 [Example 1, 4-(4′-Ethanesulfonyl-6-fluoro-2′-methoxybiphenyl-3-yl)-1-ethyl-1H-pyrazolo[3,4-c]pyridazine]
7.76	109	52	CCn1ncc2c(-c3ccc(F)c(-c4ccc(S(=O)(=O)CC)cc4)c3)cnnc21 [Example 2, 4-(4′-Ethanesulfonyl-6-fluorobiphenyl-3-yl)-1-ethyl-1H-pyrazolo[3,4-c]pyridazine]

Reference: patent publication US10538523B2, “4-(biphen-3-yl)-1H-pyrazolo[3,4-c]pyridazine derivatives of formula (I) as GABA receptor modulators for use in the treatment of epilepsy and pain” (PFIZER LIMITED, priority 2015, dated 2020)
